In patent publication US8642774B2, “Compounds” (Boehringer Ingelheim International GmbH, priority 2011, dated 2014):

Target: T1, human recombinant mGluR5 (Homo sapiens, UniProt P41594)
T1 construct: expressed in transfected cells; host or cells: HEK 293 cell line, cultured with tetracycline, hygromycin and geneticin; tetracycline is withdrawn 3-7 days before the assay
Experiment: positive modulation of mGluR5, calcium based FLIPR assay
Assay type: cell-based
Conditions: EC50 of the modulation; HEK 293 cell line expressing human recombinant mGluR5; peak height of Ca fluorescence signal after glutamate at approx. 5% basal stimulation; read-out: EC50
Procedure, shortened: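 HEK 293 cells expressing human recombinant mGluR5, tetracycline-free before assay, loaded with Calcium-4 dye in Ringer solution pH 7.4. Compounds (1% DMSO final) added for 5 min, then glutamate at about 5% of maximal effect; FLIPR peak Ca signal scaled between 1% DMSO (100%) and 10 μM CDPPB (200%) controls, EC50 by nonlinear regression.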

T1 sequence (P41594 21-1212): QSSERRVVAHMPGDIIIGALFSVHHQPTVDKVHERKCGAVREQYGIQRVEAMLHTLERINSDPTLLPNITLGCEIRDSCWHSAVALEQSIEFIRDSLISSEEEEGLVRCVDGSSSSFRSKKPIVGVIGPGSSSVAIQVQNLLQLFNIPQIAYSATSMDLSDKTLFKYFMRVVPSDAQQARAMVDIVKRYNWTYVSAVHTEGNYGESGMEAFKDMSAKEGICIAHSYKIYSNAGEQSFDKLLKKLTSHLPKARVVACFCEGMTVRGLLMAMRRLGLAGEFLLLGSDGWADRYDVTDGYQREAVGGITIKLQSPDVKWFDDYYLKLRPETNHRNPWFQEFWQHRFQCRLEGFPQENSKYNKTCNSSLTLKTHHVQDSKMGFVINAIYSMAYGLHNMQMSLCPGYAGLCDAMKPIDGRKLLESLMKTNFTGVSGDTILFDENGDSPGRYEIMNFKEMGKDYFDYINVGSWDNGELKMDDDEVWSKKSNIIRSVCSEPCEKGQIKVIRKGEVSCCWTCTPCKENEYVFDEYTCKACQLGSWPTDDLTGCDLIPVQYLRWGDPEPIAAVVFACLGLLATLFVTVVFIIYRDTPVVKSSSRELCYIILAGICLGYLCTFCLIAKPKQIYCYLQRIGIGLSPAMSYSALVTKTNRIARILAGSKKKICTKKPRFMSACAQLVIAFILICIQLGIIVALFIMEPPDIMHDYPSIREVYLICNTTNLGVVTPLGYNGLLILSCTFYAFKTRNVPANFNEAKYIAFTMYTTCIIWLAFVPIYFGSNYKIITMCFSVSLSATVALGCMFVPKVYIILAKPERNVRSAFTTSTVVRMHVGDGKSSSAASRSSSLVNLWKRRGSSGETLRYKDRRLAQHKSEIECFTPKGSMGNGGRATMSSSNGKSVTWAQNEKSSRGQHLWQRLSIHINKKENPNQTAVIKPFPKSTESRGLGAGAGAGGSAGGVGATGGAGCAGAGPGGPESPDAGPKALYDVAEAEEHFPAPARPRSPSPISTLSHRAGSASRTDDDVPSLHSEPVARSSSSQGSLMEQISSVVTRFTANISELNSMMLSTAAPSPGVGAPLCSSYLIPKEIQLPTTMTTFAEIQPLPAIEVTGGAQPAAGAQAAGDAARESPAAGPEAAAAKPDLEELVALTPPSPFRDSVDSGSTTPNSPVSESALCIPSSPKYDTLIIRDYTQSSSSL

SMILES | EC50 [nM]
Cc1nc2c(s1)CCN(C(=O)Cn1nc(-c3ccc(F)cn3)nc1-c1ccc(F)cc1)CC2 [Example 7.03.116.] | 392
Cc1nc2c(s1)CCN(C(=O)Cn1nc(-c3ccc(F)cc3)nc1-c1ccc(F)cn1)CC2 [Example 7.03.117.] | 889
CC1CN(C(=O)Cn2nc(-c3ccc(F)cc3)nc2-c2ccc(F)cc2)CCN1c1ncccn1 (stereo not shown) [Example 7.03.118.] | 211
CC1CN(c2ncccn2)CCN1C(=O)Cn1nc(-c2ccc(F)cc2)nc1-c1ccc(F)cc1 (stereo not shown) [Example 7.03.119.] | 329
Cc1nc2c(s1)CC(C)N(C(=O)Cn1nc(-c3ccc(F)cc3)nc1-c1ccc(F)cc1)CC2 (stereo not shown) [Example 7.03.121.] | 259
CCc1nc(-c2ccc(OC(F)F)cc2)nn1CC(=O)N1CCc2nc(C)sc2CC1 [Example 7.03.126] | 201
CCCc1nc(-c2ccc(OC(F)F)cc2)nn1CC(=O)N1CCN(c2noc(C)n2)CC1 [Example 7.03.130] | 481
CCCc1nc(-c2ccc(OC(F)F)cc2)nn1CC(=O)N1CCc2nc(C)sc2CC1 [Example 7.03.131] | 316
O=C(Cn1nc(-c2ccc(F)cc2)nc1-c1ccc(F)cc1)N1CCN(c2nccc3sccc23)CC1 [Example 07.03.136.] | 498
O=C(Cn1nc(-c2ccc(F)cc2)nc1-c1ccc(F)cc1)N1CCN(c2nccc3occc23)CC1 [Example 07.03.137.] | 339
O=C(Cn1nc(-c2ccc(F)cc2)nc1-c1ccc(F)cc1)N1CCc2nc(N3CCCC3)sc2CC1 [Example 7.04.01., 2-[3,5-bis-(4-Fluoro-phenyl)-(1,2,4)triazol-1-yl)-1-(2-pyrrolidin-1-yl-4,5,7,8-tetrahydro-thiazolo[4,5-d]azepin-6-yl)-ethanone] | 678
CN(C)c1nc2c(s1)CCN(C(=O)Cn1nc(-c3ccc(F)cc3)nc1-c1ccc(F)cc1)CC2 [Example 7.04.03.] | 346
O=C(Cn1nc(-c2ccc(F)cc2)nc1-c1ccc(F)cc1)N1CCc2nc(N3CCCCC3)sc2CC1 [Example 7.04.04.] | 561
O=C(Cn1nc(-c2ccc(F)cc2)nc1-c1ccc(F)cc1)N1CCc2nc(N3CCOCC3)sc2CC1 [Example 7.04.05.] | 1660
O=C(Cn1nc(-c2ccc(F)cc2)nc1-c1ccc(F)cc1)N1CCN(C2=NCCCS2)CC1 [Example 7.05.01., 2-(3,5-bis-(4-Fluoro-phenyl)-(1,2,4)triazol-1-yl]-1-[4-(5,6-dihydro-4H-(1,3)thiazin-2-yl)-piperazin-1-yl]-ethanone] | 1710
O=C(Cn1nc(-c2ccc(F)cc2)nc1-c1ccc(F)cc1)N1CCc2ncsc2CC1 [Example 7.06.01., 2-(3,5-bis-(4-Fluoro-phenyl)-(1,2,4)triazol-1-yl]-1-(4,5,7,8-tetrahydro-thiazolo[4,5-d]azepin-6-yl)-ethanone] | 1130

These reach a lower EC50. Values come first.

EC50 [nM] | SMILES
152 | CCCCCc1nc(-c2ccc(F)c(C)c2)nn1CC(=O)N1Cc2nc(C)oc2C1 [Example 7.03.125]
132 | CNc1nc2c(s1)CCN(C(=O)Cn1nc(-c3ccc(F)cc3)nc1-c1ccc(F)cc1)CC2 [Example 7.04.02.]
129 | Cc1nnc(N2CCN(C(=O)Cn3nc(-c4ccc(OC(F)F)cc4)nc3-c3ccccc3)CC2)o1 [Example 7.03.134]
104 | COc1ccc(-c2nc(-c3ccc(OC)cc3)n(CC(=O)N3Cc4nc(C)oc4C3)n2)cc1 [Example 7.03.133]
95 | COc1ccc(-c2nc(-c3ccccc3)n(CC(=O)N3Cc4nc(C)oc4C3)n2)cc1 [Example 7.03.132]
85 | Cc1nc2c(s1)CN(C(=O)Cn1nc(-c3ccc(OC(F)F)cc3)nc1-c1ccccc1)C2 [Example 7.03.128]
61 | Cc1nc2c(o1)CN(C(=O)Cn1nc(-c3ccc(F)cc3)nc1-c1ccc(F)cc1)C2 [Example 7.03.124]
57 | Cc1nc2c(o1)CCN(C(=O)Cn1nc(-c3ccc(F)cc3)nc1-c1ccc(F)cc1)CC2 [Example 7.03.122.]
40 | Cc1nc2c(s1)CCN(C(=O)Cn1nc(-c3ccc(OC(F)F)cc3)nc1-c1ccccc1)CC2 [Example 7.03.127]
31 | Cc1nc2c(o1)CN(C(=O)Cn1nc(-c3ccc(F)c(C)c3)nc1-c1ccccc1)C2 [Example 7.03.123]
27 | Cc1nc2c(o1)CN(C(=O)Cn1nc(-c3ccc(OC(F)F)cc3)nc1-c1ccccc1)C2 [Example 7.03.129]
19 | Cc1nc(N2CCN(C(=O)Cn3nc(-c4ccc(OC(F)F)cc4)nc3-c3ccccc3)CC2)no1 [Example 7.03.135]
